Data as given in the NIST ThermoML archive (doi:10.1021/je101031j).
Numbers after ± are expanded uncertainties.

Tests used:
[1] = 298.15 K; 101.33 kPa; Liquid; Vibrating tube method
[2] = refractive index (Na D-line) (dimensionless); conditions: 298.15 K; 101.33 kPa; Liquid; Standard Abbe refractometry
[3] = excess molar enthalpy (molar enthalpy of mixing); xn = mol fraction of the nth substance listed; conditions: 298.15 K, 101.3 kPa, Liquid, Calvet calorimetry

`CCC(C)(C)O` [2-methylbutan-2-ol] gave a mass density [1] of 804.8 ± 0.31 kg/m3 and a refractive index [2] of 1.4019 ± 0.0005.

With `CCC(C)(C)O` [2-methylbutan-2-ol] + CCCCCO the excess molar enthalpy ([3]; x1 = 0.0899) was -0.0499 ± 0.000574 kcal/mol, the excess molar enthalpy ([3]; x1 = 0.18) was -0.09866 ± 0.000956 kcal/mol and the excess molar enthalpy ([3]; x1 = 0.27) was -0.1359 ± 0.00124 kcal/mol. The excess molar enthalpy ([3]; x1 = 0.3664) was -0.1551 ± 0.00139 kcal/mol, the excess molar enthalpy ([3]; x1 = 0.4566) was -0.1636 ± 0.00146 kcal/mol and the excess molar enthalpy ([3]; x1 = 0.5468) was -0.1618 ± 0.00143 kcal/mol. The excess molar enthalpy ([3]; x1 = 0.6372) was -0.1515 ± 0.00136 kcal/mol, the excess molar enthalpy ([3]; x1 = 0.7278) was -0.1268 ± 0.00117 kcal/mol and the excess molar enthalpy ([3]; x1 = 0.8185) was -0.09235 ± 0.000908 kcal/mol. For the same compound, the excess molar enthalpy ([3]; x1 = 0.9091) was -0.0493 ± 0.000574 kcal/mol.

Work on `CCC(C)(C)O` [2-methylbutan-2-ol] + CCCCO yielded an excess molar enthalpy ([3]; x1 = 0.09) of -0.064 ± 0.000669 kcal/mol, an excess molar enthalpy ([3]; x1 = 0.1801) of -0.1142 ± 0.00108 kcal/mol and an excess molar enthalpy ([3]; x1 = 0.2702) of -0.1553 ± 0.00139 kcal/mol. It also gave an excess molar enthalpy ([3]; x1 = 0.3707) of -0.1793 ± 0.00158 kcal/mol, an excess molar enthalpy ([3]; x1 = 0.4609) of -0.1912 ± 0.00167 kcal/mol and an excess molar enthalpy ([3]; x1 = 0.551) of -0.1882 ± 0.00165 kcal/mol. It also gave an excess molar enthalpy ([3]; x1 = 0.6412) of -0.1746 ± 0.00153 kcal/mol, an excess molar enthalpy ([3]; x1 = 0.7313) of -0.145 ± 0.00131 kcal/mol and an excess molar enthalpy ([3]; x1 = 0.8198) of -0.102 ± 0.00098 kcal/mol. It also gave an excess molar enthalpy ([3]; x1 = 0.9099) of -0.0509 ± 0.000574 kcal/mol.

Work on `CCC(C)(C)O` [2-methylbutan-2-ol] + CCCO yielded an excess molar enthalpy ([3]; x1 = 0.09) of -0.0608 ± 0.000645 kcal/mol, an excess molar enthalpy ([3]; x1 = 0.1801) of -0.1096 ± 0.00103 kcal/mol and an excess molar enthalpy ([3]; x1 = 0.2802) of -0.1568 ± 0.00141 kcal/mol. The excess molar enthalpy ([3]; x1 = 0.3701) was -0.1879 ± 0.00165 kcal/mol, the excess molar enthalpy ([3]; x1 = 0.4599) was -0.2053 ± 0.00177 kcal/mol and the excess molar enthalpy ([3]; x1 = 0.5497) was -0.2041 ± 0.00177 kcal/mol. It also gave an excess molar enthalpy ([3]; x1 = 0.6395) of -0.1921 ± 0.00167 kcal/mol, an excess molar enthalpy ([3]; x1 = 0.7292) of -0.1605 ± 0.00143 kcal/mol and an excess molar enthalpy ([3]; x1 = 0.8189) of -0.1131 ± 0.00105 kcal/mol. It also gave an excess molar enthalpy ([3]; x1 = 0.9088) of -0.0556 ± 0.000621 kcal/mol.

In the case of `CCC(C)(C)O` [2-methylbutan-2-ol] + CCO, the excess molar enthalpy ([3]; x1 = 0.0898) is reported as -0.0594 ± 0.000645 kcal/mol, the excess molar enthalpy ([3]; x1 = 0.1796) is reported as -0.1128 ± 0.00105 kcal/mol and the excess molar enthalpy ([3]; x1 = 0.2807) is reported as -0.1686 ± 0.00148 kcal/mol. The excess molar enthalpy ([3]; x1 = 0.3707) was -0.2039 ± 0.00177 kcal/mol, the excess molar enthalpy ([3]; x1 = 0.4607) was -0.2271 ± 0.00194 kcal/mol and the excess molar enthalpy ([3]; x1 = 0.5507) was -0.2326 ± 0.00198 kcal/mol. It also gave an excess molar enthalpy ([3]; x1 = 0.6406) of -0.2178 ± 0.00186 kcal/mol, an excess molar enthalpy ([3]; x1 = 0.7306) of -0.1842 ± 0.0016 kcal/mol and an excess molar enthalpy ([3]; x1 = 0.8205) of -0.1302 ± 0.0012 kcal/mol. For the same compound, the excess molar enthalpy ([3]; x1 = 0.9103) was -0.0648 ± 0.000693 kcal/mol.

With `CCC(C)(C)O` [2-methylbutan-2-ol] + CO the excess molar enthalpy ([3]; x1 = 0.0908) was -0.0613 ± 0.000669 kcal/mol, the excess molar enthalpy ([3]; x1 = 0.1814) was -0.1248 ± 0.00115 kcal/mol and the excess molar enthalpy ([3]; x1 = 0.2731) was -0.1921 ± 0.00167 kcal/mol. It also gave an excess molar enthalpy ([3]; x1 = 0.3644) of -0.2497 ± 0.00213 kcal/mol, an excess molar enthalpy ([3]; x1 = 0.4608) of -0.2868 ± 0.00239 kcal/mol and an excess molar enthalpy ([3]; x1 = 0.5513) of -0.3031 ± 0.00263 kcal/mol. It also gave an excess molar enthalpy ([3]; x1 = 0.6416) of -0.2905 ± 0.00239 kcal/mol, an excess molar enthalpy ([3]; x1 = 0.7319) of -0.2556 ± 0.00217 kcal/mol and an excess molar enthalpy ([3]; x1 = 0.8195) of -0.1911 ± 0.00167 kcal/mol. For the same compound, the excess molar enthalpy ([3]; x1 = 0.9101) was -0.1008 ± 0.000956 kcal/mol.

`CCCCO` [butan-1-ol] gave a mass density [1] of 805.61 ± 0.31 kg/m3 and a refractive index [2] of 1.3973 ± 0.0005.

`CCO` [ethanol] showed a mass density [1] of 785.22 ± 0.31 kg/m3 and a refractive index [2] of 1.3591 ± 0.0005.

`CO` [methanol] gave a mass density [1] of 786.42 ± 0.31 kg/m3 and a refractive index [2] of 1.3264 ± 0.0005.

With `CCCCCO` [pentan-1-ol] the mass density [1] was 810.82 ± 0.31 kg/m3 and the refractive index [2] was 1.4086 ± 0.0005.

`CCCO` [propan-1-ol] showed a mass density [1] of 799.46 ± 0.31 kg/m3 and a refractive index [2] of 1.383 ± 0.0005.
